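Where inhibition never reached the appropriate level, the endpoint shown equals the highest concentration tested. Otherwise, values were interpolated linearly from a five-concentration, 48-hour dose response in 96-well plates. Abbreviation: GI50, concentration required for 50% inhibition of growth.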 The source made the active and inactive calls. No stated cut-off is given here; in the data, active = GI50 up to about 1.1 µM and inactive = higher. Bounds are passed on as bounds.

Among the test systems are TK-10; RPMI-8226; NCI-H522; HCT-116; OVCAR-3; BT-549; NCI-H23; DU-145; RXF 393; A498; SK-OV-3; HCT-15; SF-268; SNB-19; EKVX; NCI/ADR-RES; UACC-257; IGROV-1; NCI-H460; M19-MEL.
What all share (assay): inhibition of tumour cell growth, NCI panel, 48 h

Consider `O=c1ccc2nc3ccc(O)cc3oc-2c1`, for which the GI50 is > 72.1 µM (inactive) with TK-10; 3.3 µM (inactive) with RPMI-8226; 5.32 µM (inactive) with NCI-H522; 16.4 µM (inactive) in the assay with HCT-116; 10.5 µM (inactive) in the assay on OVCAR-3; 7.24 µM (inactive) with BT-549. Further, the GI50 is 3.56 µM (inactive) in the assay on NCI-H23; 21 µM (inactive) in the assay on DU-145; > 100 µM (inactive) in the assay with RXF 393; 35.2 µM (inactive) with A498; > 100 µM (inactive) in the assay on SK-OV-3; 13.5 µM in the assay with HCT-15. Also, the GI50 with SF-268 is 28.8 µM (inactive); in the assay on SNB-19, 38.6 µM (inactive); in the assay on EKVX, > 100 µM (inactive); in the assay with NCI/ADR-RES it was 19.5 µM (inactive); in the assay on UACC-257, 8.69 µM (inactive); in the assay with IGROV-1, 39.5 µM (inactive). In addition, the GI50 with NCI-H460 was 12 µM (inactive).

As to `CCOC(=O)C1=C(Nc2ccccc2)SCC1=O`, the GI50 in the assay with M19-MEL, in the assay with TK-10, in the assay with RPMI-8226, in the assay on NCI-H522, with HCT-116 and in the assay with OVCAR-3 was > 100 µM (inactive) in each case. Moreover, the GI50 was > 100 µM (inactive) with NCI-H23; > 100 µM (inactive) in the assay with SK-OV-3; > 100 µM in the assay on HCT-15; > 100 µM (inactive) in the assay with SF-268; > 100 µM (inactive) in the assay on SNB-19; > 100 µM (inactive) with UACC-257. Moreover, the GI50 in the assay with IGROV-1 and in the assay on NCI-H460 was > 100 µM (inactive) in each case.

Consider `O=C(CCCCCCCCCCc1ccccc1)C1=C(O)CC(O)CC1=O` (centres undefined), for which the GI50 in the assay with M19-MEL was 53.3 µM (inactive); with TK-10, 64.6 µM (inactive); in the assay with RPMI-8226, 34.8 µM (inactive); with NCI-H522, 33.4 µM (inactive); with HCT-116, 43.3 µM (inactive); with OVCAR-3, 52.6 µM (inactive). Moreover, the GI50 in the assay with NCI-H23 was 56.4 µM (inactive); in the assay on RXF 393 it was > 100 µM (inactive); with SK-OV-3, > 100 µM (inactive); in the assay on SF-268 it was > 100 µM (inactive); with SNB-19, 88.5 µM (inactive); with EKVX, 81.1 µM (inactive). Further, the GI50 is 63.1 µM (inactive) in the assay with UACC-257, 72.4 µM (inactive) in the assay with IGROV-1 and 46.3 µM (inactive) in the assay on NCI-H460.

As for `CCC/C=C1\CCC(CN(C)C)C1=O` (centres undefined), the GI50 in the assay with M19-MEL is 12.9 µM (inactive); in the assay with TK-10, 5.41 µM (inactive); in the assay on RPMI-8226 it was 0.333 µM (active); in the assay with NCI-H522, 1.93 µM (inactive); in the assay with HCT-116 it was 9.91 µM (inactive); with OVCAR-3, 5.47 µM (inactive). The GI50 was 17.1 µM (inactive) in the assay with NCI-H23; 0.455 µM (active) in the assay with A498; 36.3 µM (inactive) with SK-OV-3; 2.51 µM in the assay on HCT-15; 14.5 µM (inactive) in the assay with SF-268; 36.7 µM (inactive) in the assay on SNB-19. The GI50 with EKVX was 6.12 µM (inactive); in the assay with UACC-257, 15 µM (inactive); in the assay with IGROV-1 it was 18.5 µM (inactive); in the assay on NCI-H460, 28.1 µM (inactive).

`COc1cc(/C=C/c2csnn2)cc(OC)c1OC`: the GI50 with M19-MEL, with TK-10, with RPMI-8226, with NCI-H522, with HCT-116 and in the assay with OVCAR-3 was > 100 µM (inactive) in each case. In addition, the GI50 with NCI-H23 is > 100 µM (inactive); in the assay on RXF 393, > 100 µM (inactive); in the assay on SK-OV-3, > 100 µM (inactive); in the assay with HCT-15, > 100 µM; with SF-268, 67 µM (inactive); in the assay on SNB-19 it was > 100 µM (inactive). Besides, the GI50 in the assay with EKVX was 52.2 µM (inactive); with UACC-257, > 100 µM (inactive); with IGROV-1, > 100 µM (inactive); with NCI-H460 it was > 100 µM (inactive).

On to `O=C(O)/C=C/c1nc2ccccc2c(=O)o1`, for which the GI50 in the assay on M19-MEL, in the assay with TK-10, in the assay on RPMI-8226, with NCI-H522, in the assay on HCT-116 and in the assay on OVCAR-3 was > 100 µM (inactive) each time. Moreover, the GI50 is > 100 µM (inactive) in the assay on NCI-H23; > 100 µM (inactive) in the assay with SK-OV-3; > 100 µM in the assay on HCT-15; > 100 µM (inactive) in the assay with SNB-19; > 100 µM (inactive) in the assay with EKVX; > 100 µM (inactive) with IGROV-1.

Turning to `c1ccc(C2=NOC3C4CCC(C4)C23)cc1` (centres undefined), the GI50 in the assay on M19-MEL, with TK-10, in the assay with RPMI-8226, in the assay on NCI-H522, in the assay on HCT-116 and in the assay on OVCAR-3 was > 100 µM (inactive) throughout. The GI50 was > 100 µM (inactive) in the assay with NCI-H23; > 100 µM (inactive) with A498; > 100 µM (inactive) with SK-OV-3; > 100 µM in the assay on HCT-15; > 100 µM (inactive) in the assay on SF-268; > 100 µM (inactive) in the assay with SNB-19. In addition, the GI50 in the assay with EKVX, with UACC-257, in the assay on IGROV-1 and with NCI-H460 was > 100 µM (inactive) throughout.

With `CCOc1cccc2c1N[S@@](=O)S2`, the GI50 in the assay on M19-MEL was > 100 µM (inactive); with TK-10, > 100 µM (inactive); in the assay with RPMI-8226 it was 98.2 µM (inactive); with NCI-H522 it was 55.5 µM (inactive); in the assay with HCT-116 it was > 100 µM (inactive); with OVCAR-3 it was > 100 µM (inactive). Moreover, the GI50 in the assay on NCI-H23 was > 100 µM (inactive); in the assay on SK-OV-3, > 100 µM (inactive); in the assay on HCT-15, > 100 µM; in the assay on SF-268, > 100 µM (inactive); in the assay on SNB-19, 59.2 µM (inactive); with EKVX it was > 100 µM (inactive). Moreover, the GI50 with UACC-257 and in the assay with IGROV-1 was > 100 µM (inactive) throughout.

As for `Cc1c2cc[n+](COC(=O)c3ccccc3)cc2c(C)c2c1[nH]c1ccccc12`, the GI50 in the assay on M19-MEL is 0.743 µM (active); in the assay on TK-10, 1.58 µM (inactive); in the assay on RPMI-8226, 0.569 µM (active); in the assay on NCI-H522, 1.08 µM (active); with HCT-116, 0.298 µM (active); in the assay on OVCAR-3, 1.37 µM (inactive). Also, the GI50 was 0.849 µM (active) in the assay with NCI-H23; 1.23 µM (inactive) with A498; 1.39 µM (inactive) with SK-OV-3; 0.571 µM (active) with SF-268; 0.778 µM (active) in the assay with SNB-19; 1.52 µM (inactive) with UACC-257. Moreover, the GI50 in the assay with IGROV-1 is 0.299 µM (active).

With `O=c1cc(-c2ccccc2)[nH]c2cc(F)cc(F)c12`, the GI50 is 31.6 µM (inactive) in the assay on M19-MEL; 63.7 µM (inactive) with TK-10; 30.1 µM (inactive) in the assay on RPMI-8226; 11.9 µM (inactive) in the assay on NCI-H522; 36.2 µM (inactive) with HCT-116; 48.6 µM (inactive) in the assay on NCI-H23. For the same molecule, the GI50 is 29.2 µM (inactive) in the assay on RXF 393; 19.7 µM (inactive) in the assay on SK-OV-3; 6.59 µM in the assay on HCT-15; > 100 µM (inactive) in the assay on SF-268; 40.1 µM (inactive) in the assay on UACC-257; 37.8 µM (inactive) in the assay with IGROV-1. Besides, the GI50 with NCI-H460 was 28.3 µM (inactive).

Turning to `O=C(Nc1cccc(Cl)c1)C(=O)C(C(=O)c1ccc2ccccc2c1)C1OC(=O)c2ccccc21` (centres undefined), the GI50 with M19-MEL is 13.8 µM (inactive); in the assay with TK-10, 29 µM (inactive); in the assay on RPMI-8226, 7.67 µM (inactive); in the assay with NCI-H522, > 10 µM (inactive); in the assay on HCT-116, 12.6 µM (inactive); in the assay on OVCAR-3, 14.7 µM (inactive). Also, the GI50 is 7.94 µM (inactive) in the assay on NCI-H23; 6.01 µM (inactive) in the assay on A498; 24.6 µM (inactive) in the assay with SK-OV-3; > 10 µM in the assay with HCT-15; 7.29 µM (inactive) in the assay on SF-268; 5.3 µM (inactive) in the assay with SNB-19. The GI50 is 32.7 µM (inactive) in the assay with EKVX, 17 µM (inactive) in the assay on UACC-257, 22.4 µM (inactive) with IGROV-1 and 8.75 µM (inactive) in the assay with NCI-H460.

For `COC1=C2CC(C)CC(OC)C(OC(=O)CN)[C@H](C)/C=C(\C)C(OC(N)=O)C(OC)/C=C\C=C(/C)C(=O)NC(=CC1=O)C2=O` (some centres undefined), the GI50 with TK-10 is 0.519 µM (active); in the assay on RPMI-8226 it was 0.902 µM (active); with NCI-H522, 0.159 µM (active); in the assay on HCT-116, 0.498 µM (active); in the assay with OVCAR-3, 0.481 µM (active); in the assay with BT-549 it was 1.09 µM (active). Further, the GI50 with NCI-H23 is 0.369 µM (active); in the assay with DU-145, 1.45 µM (inactive); in the assay on RXF 393 it was 0.507 µM (active); with A498, 12.1 µM (inactive); in the assay with SK-OV-3, 3.32 µM (inactive); with HCT-15, 0.899 µM. In addition, the GI50 in the assay on SF-268 is 3.44 µM (inactive); in the assay with SNB-19, 6.55 µM (inactive); in the assay with EKVX it was 0.838 µM (active); in the assay on NCI/ADR-RES, 9.62 µM (inactive); in the assay on UACC-257, 0.359 µM (active); in the assay on IGROV-1, 0.453 µM (active). In addition, the GI50 in the assay on NCI-H460 is 6.14 µM (inactive).

Regarding `CC(=O)NC1=C(C)C(=O)c2c(nc3n2CCC3O)C1=N` (centres undefined), the GI50 is 2.36 µM (inactive) with M19-MEL; 29.9 µM (inactive) with TK-10; > 100 µM (inactive) in the assay with RPMI-8226; 6.75 µM (inactive) in the assay with NCI-H522; 2.39 µM (inactive) in the assay with HCT-116; 2.98 µM (inactive) in the assay on OVCAR-3. Also, the GI50 in the assay on NCI-H23 is 14.8 µM (inactive); in the assay on A498 it was 27.2 µM (inactive); in the assay with SK-OV-3, 28.2 µM (inactive); in the assay with HCT-15 it was 19.2 µM; with SF-268, 10.3 µM (inactive); in the assay on SNB-19, 25.1 µM (inactive). The GI50 in the assay with EKVX is 21.1 µM (inactive); in the assay with UACC-257, 3.9 µM (inactive); in the assay on IGROV-1 it was 18.7 µM (inactive); in the assay with NCI-H460, 22 µM (inactive).
